ChEMBL document CHEMBL4411318, “Discovery of a Series of 2'-α-Fluoro,2'-β-bromo-ribonucleosides and Their Phosphoramidate Prodrugs as Potent Pan-Genotypic Inhibitors of Hepatitis C Virus” (J Med Chem, 2019)

Experiments:
[1] = Cytotoxicity against human CCRF-CEM assessed reduction in cell viability after 4 days by MTT assay; type: cell-based; settings: CCRF-CEM cells
[2] = tested on: Vero; type: cell-based; settings: chlorocebus sabaeus, 72 h
[3] = target: RNA-directed RNA polymerase (Hepacivirus hominis) (UniProt O39930); settings: Hepatitis C virus subtype 1b
Sequence of RNA-directed RNA polymerase (Hepacivirus hominis) (O39930 1-591): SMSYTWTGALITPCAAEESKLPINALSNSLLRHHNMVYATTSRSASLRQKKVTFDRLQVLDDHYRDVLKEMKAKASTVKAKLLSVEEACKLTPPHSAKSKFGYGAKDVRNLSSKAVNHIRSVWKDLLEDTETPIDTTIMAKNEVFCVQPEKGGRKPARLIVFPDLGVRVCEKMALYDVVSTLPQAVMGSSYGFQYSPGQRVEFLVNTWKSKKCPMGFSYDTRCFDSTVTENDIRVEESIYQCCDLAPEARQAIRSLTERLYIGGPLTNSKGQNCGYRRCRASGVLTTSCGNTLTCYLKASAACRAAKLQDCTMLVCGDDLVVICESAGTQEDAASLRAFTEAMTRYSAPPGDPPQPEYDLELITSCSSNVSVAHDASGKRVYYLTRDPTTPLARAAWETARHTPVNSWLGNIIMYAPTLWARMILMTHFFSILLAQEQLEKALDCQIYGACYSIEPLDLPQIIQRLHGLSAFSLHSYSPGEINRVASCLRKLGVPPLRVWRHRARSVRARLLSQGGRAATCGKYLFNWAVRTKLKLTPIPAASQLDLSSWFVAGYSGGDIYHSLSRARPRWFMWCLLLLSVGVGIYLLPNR
Description: Inhibition of NS5B polymerase in wild type HCV genotype 1b infected in human Huh7 replicon cells after 5 days by RT-PCR assay

[4] = tested on: Huh-7; assay: Cytotoxicity against human HuH7 cells assessed reduction in cell viability after 3 to 5 days by cellular ribosomal RNA amplification assay
[5] = Cytotoxicity against human HuH7 cells assessed reduction in cell viability after 3 to 5 days by MTT assay; type: cell-based, Huh-7
[6] = Cytotoxicity against human PBMC assessed reduction in cell viability after 5 days by MTT assay; type: cell-based; settings: PBMC
[7] = target: DNA-directed RNA polymerase, mitochondrial (Homo sapiens, UniProt O00411); assay: Substrate activity at human POLRMT assessed as 5-radiolabled RNA/DNA incorporation levels at 100 uM after 2 hrs by PAGE analysis; type: ADME
Sequence of DNA-directed RNA polymerase, mitochondrial (O00411 whole entry): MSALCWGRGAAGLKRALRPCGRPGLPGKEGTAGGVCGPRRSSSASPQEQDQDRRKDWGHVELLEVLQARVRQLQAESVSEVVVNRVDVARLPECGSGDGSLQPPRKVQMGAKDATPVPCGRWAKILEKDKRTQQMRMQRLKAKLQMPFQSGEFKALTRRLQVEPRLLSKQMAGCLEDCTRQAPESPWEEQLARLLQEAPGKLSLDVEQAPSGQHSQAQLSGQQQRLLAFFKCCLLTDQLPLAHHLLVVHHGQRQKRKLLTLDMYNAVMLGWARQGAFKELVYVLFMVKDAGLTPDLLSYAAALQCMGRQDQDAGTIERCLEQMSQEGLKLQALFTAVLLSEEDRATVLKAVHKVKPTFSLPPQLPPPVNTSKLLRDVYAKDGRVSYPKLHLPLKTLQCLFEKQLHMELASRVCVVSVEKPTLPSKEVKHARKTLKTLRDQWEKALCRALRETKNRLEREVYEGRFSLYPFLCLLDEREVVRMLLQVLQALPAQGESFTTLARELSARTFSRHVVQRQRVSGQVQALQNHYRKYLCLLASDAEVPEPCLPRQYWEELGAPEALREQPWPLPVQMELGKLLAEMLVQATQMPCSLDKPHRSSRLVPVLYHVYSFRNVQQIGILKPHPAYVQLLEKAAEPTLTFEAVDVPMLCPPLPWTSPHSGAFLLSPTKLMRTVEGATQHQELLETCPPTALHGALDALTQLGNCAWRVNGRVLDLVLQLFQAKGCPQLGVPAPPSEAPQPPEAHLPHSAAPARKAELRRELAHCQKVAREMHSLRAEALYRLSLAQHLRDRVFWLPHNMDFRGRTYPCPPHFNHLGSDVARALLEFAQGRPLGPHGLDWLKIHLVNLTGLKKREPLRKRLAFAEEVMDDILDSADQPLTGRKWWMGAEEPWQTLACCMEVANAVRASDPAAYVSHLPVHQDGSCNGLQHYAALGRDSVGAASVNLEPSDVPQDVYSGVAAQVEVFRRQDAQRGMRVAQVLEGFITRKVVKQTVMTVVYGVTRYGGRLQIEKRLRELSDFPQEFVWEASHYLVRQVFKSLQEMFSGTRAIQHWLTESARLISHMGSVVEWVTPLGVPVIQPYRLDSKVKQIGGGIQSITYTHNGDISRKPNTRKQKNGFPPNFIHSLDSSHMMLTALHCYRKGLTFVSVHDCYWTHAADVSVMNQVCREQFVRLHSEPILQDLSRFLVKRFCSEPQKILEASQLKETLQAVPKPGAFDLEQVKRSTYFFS

[8] = tested on: HepG2; assay: Mitochondrial toxicity in human HepG2 cells assessed as lactic acid production at 50 uM followed by medium plus drugs replenishment every 3 to 4 days for 14 days relative to control; type: cell-based; settings: hepg2, 336 h
[9] = tested on: cytochrome c oxidase subunit 2 DNA level; assay: Mitochondrial toxicity in human HepG2 cells assessed as inhibition of cytochrome c oxidase subunit 2 DNA level at 50 uM followed by medium plus drugs replenishment every 3 to 4 days for 14 days relative to control; type: cell-based
[10] = tested on: nuclear ribosomal-DNA level; assay: Mitochondrial toxicity in human HepG2 cells assessed as inhibition of nuclear ribosomal-DNA level at 50 uM followed by medium plus drugs replenishment every 3 to 4 days for 14 days relative to control; type: cell-based
[11] = tested on: cytochrome c oxidase subunit 2 DNA level; assay: Mitochondrial toxicity in human HepG2 cells assessed as inhibition of cytochrome c oxidase subunit 2 DNA level followed by medium plus drugs replenishment every 3 to 4 days for 14 days relative to control; type: cell-based
[12] = Stability in Beagle dog plasma assessed as compound remaining at 2 uM up to 2 hrs by LC-MS/MS analysis; type: ADME, cell-free, Canis lupus familiaris; settings: read-out: Stability
[13] = Stability in Sprague-Dawley rat plasma assessed as compound remaining at 2 uM after 2 hrs by LC-MS/MS analysis; type: ADME, cell-free; settings: read-out: Stability
[14] = tested on: nuclear ribosomal-DNA level; assay: in vitro; settings: human, HepG2 cells
[15] = Mitochondrial toxicity in human HepG2 cells assessed as reduction in cell viability after 14 days in presence of glucose supplemented media by ATP depletion assay; type: cell-based
[16] = Mitochondrial toxicity in human HepG2 cells assessed as reduction in cell viability after 3 days in presence of galactose supplemented media by ATP depletion assay; type: cell-based
[17] = Mitochondrial toxicity in human HepG2 cells assessed as reduction in cell viability after 3 days in presence of glucose supplemented media by ATP depletion assay; type: cell-based
[18] = target: RNA-directed RNA polymerase (Hepacivirus hominis) (UniProt O39930); assay: Inhibition of NS5B polymerase in HCV genotype 1b/4a chimeric replicon infected in human HuH7 replicon cells after 5 days by RT-PCR analysis; type: cell-based
[19] = target: RNA-directed RNA polymerase (Hepacivirus hominis) (UniProt O39930); assay: Inhibition of NS5B polymerase in HCV genotype 2a infected in human HuH7 replicon cells after 5 days by RT-PCR analysis; type: cell-based; settings: Hepatitis C virus subtype 2a
[20] = target: RNA-directed RNA polymerase (Hepacivirus hominis) (UniProt O39930); assay: Inhibition of NS5B polymerase in HCV genotype 1b/5a chimeric replicon infected in human HuH7 replicon cells after 5 days by RT-PCR analysis; type: cell-based
[21] = Drug metabolism in human HuH7 cells assessed as Tmax for NTP formation at 10 uM after 2 to 48 hrs by LC-MS/MS analysis; type: ADME, cell-based; settings: huh-7, 10 µM
[22] = tested on: Bone marrow cell; assay: Cytotoxicity against human bone marrow cells assessed as inhibition of burst forming unit-erythroid after 14 days by FACS analysis; type: cell-based; settings: 336 h
[23] = tested on: Bone marrow cell; assay: Cytotoxicity against human bone marrow cells assessed as inhibition of colony-forming unit-granulocyte after 14 days by FACS analysis; type: cell-based; settings: 336 h
[24] = Cardiotoxicity against human embryonic stem cell-induced ventricular cardiomyocytes administered on day 7 and measured on day 10 after 30 mins incubation by CellTiter Glo assay; type: toxicity, cell-based, Cardiac muscle cell
[25] = Half life in human intestinal microsomes by LC/MS/MS analysis; type: ADME, Intestine, Microsome
[26] = Stability in human plasma assessed as compound remaining at 2 uM after 120 mins by LC/MS/MS analysis; type: ADME, cell-free; settings: read-out: Stability
[27] = Stability in simulated intestinal fluid after 24 hrs by LC/MS/MS analysis; type: ADME; settings: simulated gi fluid
[28] = target: RNA-directed RNA polymerase (Hepacivirus hominis) (UniProt O39930); settings: genotype 1b/3a
Description: Inhibition of NS5B polymerase in HCV genotype 1b/3a chimeric replicon infected in human HuH7 replicon cells after 5 days by RT-PCR analysis

[29] = in vitro; settings: human, liver microsomes
Description: Half life in human liver microsomes in presence of NADPH regenerating system by LC/MS/MS analysis

[30] = in vitro; settings: human, liver microsomes; remark: listed apart in the source
Description: Intrinsic clearance in human liver microsomes in presence of NADPH regenerating system by LC/MS/MS analysis

[31] = in vitro; settings: human, liver microsomes; remark: listed apart in the source
Description: Stability in human liver microsomes assessed as compound remaining in absence of NADPH regenerating system after 60 mins by LC/MS/MS analysis

[32] = in vitro; settings: human, liver microsomes; remark: listed apart in the source
Description: Intrinsic clearance in human liver measured from intrinsic clearance in human liver microsomes in presence of NADPH regenerating system by LC/MS/MS analysis

[33] = Drug uptake in Beagle dog liver at 10 mg/kg, po measured up to 4 hrs by LC-MS/MS analysis; settings: in vivo, BLD = below limit of detection
[34] = Drug metabolism in Beagle dog liver assessed as formation of triphosphate form parent nucleoside at 10 mg/kg, po measured up to 4 hrs by LC-MS/MS analysis; settings: in vivo
[35] = target: T1, DNA polymerase alpha catalytic subunit (Homo sapiens, UniProt P09884); assay: Inhibition of human DNA polymerase alpha using 5-end radiolabeled 24nt to 48nt DNA as primer template after 5 mins in presence of dCTP/dGTP/dTTP/dATP by PAGE analysis
T1 sequence (P09884 whole entry): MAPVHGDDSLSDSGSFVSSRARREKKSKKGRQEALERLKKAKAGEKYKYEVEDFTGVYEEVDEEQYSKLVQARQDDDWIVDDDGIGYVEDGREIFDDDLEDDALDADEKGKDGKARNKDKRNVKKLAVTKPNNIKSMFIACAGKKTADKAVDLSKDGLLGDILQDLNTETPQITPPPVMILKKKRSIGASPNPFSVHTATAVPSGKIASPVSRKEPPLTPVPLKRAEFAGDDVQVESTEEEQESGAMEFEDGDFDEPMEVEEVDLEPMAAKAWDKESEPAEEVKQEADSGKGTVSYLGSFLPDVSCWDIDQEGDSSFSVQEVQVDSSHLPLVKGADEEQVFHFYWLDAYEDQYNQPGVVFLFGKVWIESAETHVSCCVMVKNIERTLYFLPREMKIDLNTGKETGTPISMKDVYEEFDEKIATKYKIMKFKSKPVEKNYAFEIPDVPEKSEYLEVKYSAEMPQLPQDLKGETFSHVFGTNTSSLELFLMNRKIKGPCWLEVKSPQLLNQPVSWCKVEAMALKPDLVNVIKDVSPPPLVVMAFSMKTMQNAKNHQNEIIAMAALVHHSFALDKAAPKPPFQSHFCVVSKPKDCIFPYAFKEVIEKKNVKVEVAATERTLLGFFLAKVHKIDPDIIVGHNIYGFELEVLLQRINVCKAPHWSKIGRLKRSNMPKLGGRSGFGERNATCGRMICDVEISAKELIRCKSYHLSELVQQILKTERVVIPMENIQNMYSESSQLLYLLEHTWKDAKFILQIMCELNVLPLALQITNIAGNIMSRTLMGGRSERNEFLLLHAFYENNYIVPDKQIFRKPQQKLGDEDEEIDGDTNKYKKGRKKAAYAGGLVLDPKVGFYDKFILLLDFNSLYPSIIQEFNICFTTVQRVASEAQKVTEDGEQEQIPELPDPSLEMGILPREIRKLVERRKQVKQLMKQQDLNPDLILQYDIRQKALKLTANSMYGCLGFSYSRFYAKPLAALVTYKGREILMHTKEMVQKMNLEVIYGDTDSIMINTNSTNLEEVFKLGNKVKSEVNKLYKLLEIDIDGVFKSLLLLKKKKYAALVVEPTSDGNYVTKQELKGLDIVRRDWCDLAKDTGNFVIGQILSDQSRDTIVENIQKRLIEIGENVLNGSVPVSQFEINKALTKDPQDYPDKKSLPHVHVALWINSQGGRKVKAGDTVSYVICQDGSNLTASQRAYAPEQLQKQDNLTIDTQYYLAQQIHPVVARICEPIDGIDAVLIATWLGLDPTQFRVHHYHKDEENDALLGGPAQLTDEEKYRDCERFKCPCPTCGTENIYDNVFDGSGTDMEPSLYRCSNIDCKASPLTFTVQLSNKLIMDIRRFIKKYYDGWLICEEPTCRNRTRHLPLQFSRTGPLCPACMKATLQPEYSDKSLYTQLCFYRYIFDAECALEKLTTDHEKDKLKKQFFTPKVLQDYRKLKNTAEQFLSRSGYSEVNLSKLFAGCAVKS

[36] = target: DNA polymerase beta (Homo sapiens, UniProt P06746); assay: Inhibition of human DNA polymerase beta using 5-end radiolabeled 24nt to 48nt DNA as primer template after 5 mins in presence of dCTP/dGTP/dTTP/dATP by PAGE analysis
[37] = Inhibition of human DNA polymerase gamma using 5-end radiolabeled 24nt to 48nt DNA as primer template after 120 mins in presence of dCTP/dGTP/dTTP/dATP by PAGE analysis

SMILES: Nc1nc2c(ncn2[C@@H]2O[C@H](CO)[C@@H](O)[C@]2(F)Br)c(=O)[nH]1
- CC50 at 96 h [1]: > 100 µM
- CC50 [2]: > 100 µM
- EC90 [3]: > 10 µM
- CC50 [4]: > 10 µM

SMILES: Nc1ccn([C@@H]2O[C@H](CO)[C@@H](O)[C@]2(F)Br)c(=O)n1
- CC50 at 96 h [1]: > 100 µM
- CC50 [2]: > 100 µM
- EC90 [3]: 9.5 µM
- CC50 [4]: > 10 µM

SMILES: CC(C)OC(=O)[C@H](C)NP(=O)(OC[C@H]1O[C@@H](n2cnc3c(=O)[nH]c(N)nc32)[C@](F)(Br)[C@H]1O)Oc1ccccc1 (stereo partly drawn)
- CC50 at 96 h [1]: > 100 µM
- EC90 [3]: 1.8 µM

SMILES: CC(C)OC(=O)[C@H](C)NP(=O)(OC[C@H]1O[C@@H](n2cnc3c(N)ncnc32)[C@](F)(Br)[C@H]1O)Oc1ccccc1 (stereo partly drawn)
- CC50 [5]: > 10 µM
- CC50 at 120 h [6]: > 100 µM
- CC50 at 96 h [1]: > 100 µM

SMILES: C[C@@]1(O)[C@H](O)[C@@H](COP(=O)(O)OP(=O)(O)OP(=O)(O)O)O[C@H]1n1ccc(=O)[nH]c1=O
- Activity [7]: 9.8%

SMILES: CC(C)OC(=O)[C@H](C)NP(=O)(OC[C@H]1O[C@@H](n2ccc(=O)[nH]c2=O)[C@](F)(Br)[C@H]1O)Oc1ccccc1 (mixture of isomers)
- Activity [8]: 140%
- CC50 at 120 h [6]: > 100 µM
- CC50 at 96 h [1]: > 100 µM
- inhibition at 336 h, 50 µM [9]: 39%
- inhibition at 336 h, 50 µM [10]: 40%
- IC50 at 14 days [11]: > 50 µM
- remaining at 2 h, 2 µM [12]: 100%
- remaining at 2 h, 2 µM [13]: 0.2%
- EC90 [3]: 0.9 µM
- IC50 at 14 days [14]: > 50 µM
- CC50 [4]: > 10 µM

SMILES: CC(C)OC(=O)[C@H](C)N[P@@](=O)(OC[C@H]1O[C@@H](n2ccc(=O)[nH]c2=O)C(F)(Br)C1O)Oc1ccccc1 (single isomer, unassigned)
- IC50 at 14 days [15]: > 100 µM
- IC50 at 3 days [16]: > 100 µM
- IC50 at 3 days [17]: > 100 µM
- Activity [8]: 100%
- EC90 [18]: 0.87 µM
- EC90 [19]: 0.83 µM
- CC50 [5]: > 10 µM
- CC50 at 120 h [6]: > 100 µM
- CC50 at 96 h [1]: > 100 µM
- EC90 [20]: 0.8 µM
- Tmax [21]: 24 h
- inhibition at 336 h, 50 µM [9]: 31%
- inhibition at 336 h, 50 µM [10]: < 1%
- IC50 at 14 days [11]: > 50 µM
- IC50 [22]: > 100 µM
- IC50 [23]: > 100 µM
- IC50 at 3 days [24]: > 100 µM
- half-life [25]: 2.2 h
- remaining at 2 h, 2 µM [26]: 72%
- Stability [27]: Stable
- EC90 [28]: 1.6 µM
- EC90 [3]: 0.53 to 2.4 µM
- IC50 at 14 days [14]: > 50 µM
- half-life [29]: 0.307 h
- microsomal CLint [30]: 75.3 µL/min/mg
- remaining at 1 h [31]: 26.6%
- CLint scaled [32]: 67.8 mL/min/kg
- Drug uptake [33]: Bld
- Drug metabolism [34]: Metabolite_Notdetected

SMILES: CC(C)OC(=O)[C@H](C)NP(=O)(OC[C@H]1O[C@@H](n2ccc(N)nc2=O)C(F)(Br)C1O)Oc1ccccc1 (single isomer, unassigned)
- CC50 at 96 h [1]: > 100 µM
- CC50 [2]: > 100 µM
- EC90 [3]: 1.8 µM
- CC50 [4]: > 10 µM

SMILES: Nc1ncnc2c1ncn2[C@@H]1O[C@H](CO)C(O)C1(F)Br (single isomer, unassigned)
- CC50 at 96 h [1]: > 100 µM
- CC50 [2]: > 100 µM
- EC90 [3]: > 10 µM
- CC50 [4]: > 10 µM

SMILES: O=C(O)Cc1ccccc1Nc1c(Cl)cccc1Cl [DICLOFENAC]
- CLint scaled [32]: 116 mL/min/kg

SMILES: C[C@@]1(F)[C@H](O)[C@@H](COP(=O)(O)OP(=O)(O)OP(=O)(O)O)O[C@H]1n1ccc(=O)[nH]c1=O [GS-461203]
- Activity [7]: 3.1%
- IC50 [35]: > 100 µM
- IC50 [36]: > 100 µM
- IC50 [37]: > 100 µM

SMILES: O=c1ccn([C@@H]2O[C@H](COP(=O)(O)OP(=O)(O)OP(=O)(O)O)[C@@H](O)[C@H]2O)c(=O)[nH]1 [URIDINE TRIPHOSPHATE]
- Activity [7]: 100%
